According to ChEMBL document CHEMBL1201862, “PubChem BioAssay data set” (2004):
Active and inactive are the calls of the source.

Key:
Protein RecA = molecular target: T1, Protein RecA (Mycobacterium tuberculosis, UniProt P9WHJ3); experiment: Fluorescence Cell-Free Homogeneous Dose Retest to Identify Inhibitors of RecA-Intein Splicing Activity. [Related pubchem assays (depositor defined):AID2097, AID2223, AID489010, AID492950]; assay type: functional
T1 sequence (P9WHJ3 whole entry): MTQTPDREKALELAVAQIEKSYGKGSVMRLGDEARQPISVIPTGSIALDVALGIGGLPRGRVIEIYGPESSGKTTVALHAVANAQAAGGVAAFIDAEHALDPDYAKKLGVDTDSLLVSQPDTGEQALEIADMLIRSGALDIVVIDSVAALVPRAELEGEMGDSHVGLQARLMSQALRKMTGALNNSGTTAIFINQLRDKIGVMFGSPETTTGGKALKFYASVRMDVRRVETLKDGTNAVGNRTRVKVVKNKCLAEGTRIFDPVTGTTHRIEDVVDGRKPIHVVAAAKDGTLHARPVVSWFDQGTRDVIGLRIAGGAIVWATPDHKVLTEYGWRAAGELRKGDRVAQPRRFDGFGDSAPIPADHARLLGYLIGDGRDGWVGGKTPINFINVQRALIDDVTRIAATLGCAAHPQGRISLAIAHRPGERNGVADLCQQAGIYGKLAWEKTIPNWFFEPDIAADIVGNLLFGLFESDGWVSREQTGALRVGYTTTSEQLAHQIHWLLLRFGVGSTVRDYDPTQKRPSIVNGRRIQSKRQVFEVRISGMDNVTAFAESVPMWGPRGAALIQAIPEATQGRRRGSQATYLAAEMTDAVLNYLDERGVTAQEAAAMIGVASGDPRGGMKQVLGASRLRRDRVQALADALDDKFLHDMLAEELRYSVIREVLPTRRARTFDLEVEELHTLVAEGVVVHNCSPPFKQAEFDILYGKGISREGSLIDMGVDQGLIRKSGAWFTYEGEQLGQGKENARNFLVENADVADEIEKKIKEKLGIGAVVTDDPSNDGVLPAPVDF

[1] = molecular target: T2, Replicative DNA helicase DnaB (Mycobacterium tuberculosis, UniProt P9WMR3); experiment: DnaB intein splicing inhibitors, dose response, biochemical, cell-free fluorescence (AID 449749); assay type: functional
T2 sequence (P9WMR3 whole entry): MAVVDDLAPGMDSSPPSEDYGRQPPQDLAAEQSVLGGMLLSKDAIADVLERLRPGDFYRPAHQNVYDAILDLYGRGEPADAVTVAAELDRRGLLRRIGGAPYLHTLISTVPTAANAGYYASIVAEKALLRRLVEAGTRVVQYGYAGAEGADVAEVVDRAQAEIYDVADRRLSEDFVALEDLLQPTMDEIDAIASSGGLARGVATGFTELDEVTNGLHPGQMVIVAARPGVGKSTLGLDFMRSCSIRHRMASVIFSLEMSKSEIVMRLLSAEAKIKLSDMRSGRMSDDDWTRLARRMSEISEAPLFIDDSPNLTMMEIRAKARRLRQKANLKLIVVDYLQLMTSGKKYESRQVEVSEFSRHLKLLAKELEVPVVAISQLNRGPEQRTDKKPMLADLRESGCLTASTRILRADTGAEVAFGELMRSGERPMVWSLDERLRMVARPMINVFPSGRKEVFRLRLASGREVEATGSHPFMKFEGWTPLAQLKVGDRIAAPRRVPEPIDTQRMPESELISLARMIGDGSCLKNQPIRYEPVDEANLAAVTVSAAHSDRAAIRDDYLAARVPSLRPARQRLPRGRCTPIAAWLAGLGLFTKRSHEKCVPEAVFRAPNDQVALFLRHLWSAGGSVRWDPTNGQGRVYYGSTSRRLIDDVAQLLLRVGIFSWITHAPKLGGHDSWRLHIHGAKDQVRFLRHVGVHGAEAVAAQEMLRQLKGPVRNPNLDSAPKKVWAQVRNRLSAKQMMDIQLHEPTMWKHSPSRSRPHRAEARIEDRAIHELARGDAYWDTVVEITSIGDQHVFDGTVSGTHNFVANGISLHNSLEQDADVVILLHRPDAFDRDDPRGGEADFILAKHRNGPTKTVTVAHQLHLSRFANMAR

[2] = molecular target: Tyrosyl-DNA phosphodiesterase 2 (Homo sapiens, UniProt O95551); experiment: human TDP2 enzyme inhibitors, dose response, biochemical, epi absorbance, IC50 (AID 743297)
[3] = molecular target: Luciferin 4-monooxygenase (Photinus pyralis, UniProt P08659); experiment: firefly luciferase enzyme inhibitors, dose response, biochemical, luminescence (AID 1891)
[4] = LGR2 antagonists, dose response, cell-based, HEK293, CRE-luciferase reporter, cherry pick, set 2 (AID 743343); assay type: functional;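 note: transfected cells were stimulated with diluted bursicon conditioned medium after compound addition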
[5] = HEK293 cell cytotoxicity, dose response, cytotoxicity control, plate reader, cherry-picked samples (AID 743446); assay type: functional, cell-based
[6] = HepG2 cell cytotoxicity, dose response, cytotoxicity control, plate reader, cherry-pick, antagonist series (AID 743416); assay type: functional, cell-based
[7] = Luminescence Cell-Based Dose Confirmation HTS to Identify Inhibitors of Platelet Dense Granule Release. [Related pubchem assays: 1663 (Primary HTS), 1678 (Summary of Project)]; assay type: functional
[8] = A549 cell cytotoxicity, dose response, cytotoxicity control, plate reader, cherry-pick, antagonist series (AID 743412); assay type: functional, cell-based
[9] = MC4R antagonists, dose response, counter-screen for LGR2 antagonist project, cell-based, plate reader, cherry pick (AID 743444); assay type: functional;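 note: transfected HEK 293 cells stimulated with alpha-MSH peptide; potency of inhibitors of the alpha-MSH evoked signal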
[10] = molecular target: Histone-lysine N-methyltransferase NSD2 (Homo sapiens, UniProt O96028); assay type: biochemical
[11] = molecular target: T3, RNA-binding protein pos-1 (Caenorhabditis elegans, UniProt G5EF15); experiment: inhibitors of POS-1/mex-3 RNA binding, dose response, biochemical, fluorescence polarization (AID 1964);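 note: purified POS-1 fused to maltose binding protein made in E. coli; potency of compounds blocking POS-1 binding to fluorescent RNA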
T3 sequence (G5EF15 whole entry): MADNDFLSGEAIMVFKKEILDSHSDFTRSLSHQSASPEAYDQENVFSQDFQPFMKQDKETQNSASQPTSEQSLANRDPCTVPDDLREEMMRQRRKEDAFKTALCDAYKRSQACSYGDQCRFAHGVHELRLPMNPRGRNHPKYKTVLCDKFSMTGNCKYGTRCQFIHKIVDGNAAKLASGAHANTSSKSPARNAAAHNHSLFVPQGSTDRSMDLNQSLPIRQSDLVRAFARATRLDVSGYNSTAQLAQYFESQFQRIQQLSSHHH

[12] = molecular target: T4, Zinc finger protein mex-5 (Caenorhabditis elegans, UniProt Q9XUB2); experiment: MEX-5/TCR-2 RNA interaction inhibitors, dose response, biochemical, C. elegans, fluorescence polarization (AID 1960)
T4 sequence (Q9XUB2 whole entry): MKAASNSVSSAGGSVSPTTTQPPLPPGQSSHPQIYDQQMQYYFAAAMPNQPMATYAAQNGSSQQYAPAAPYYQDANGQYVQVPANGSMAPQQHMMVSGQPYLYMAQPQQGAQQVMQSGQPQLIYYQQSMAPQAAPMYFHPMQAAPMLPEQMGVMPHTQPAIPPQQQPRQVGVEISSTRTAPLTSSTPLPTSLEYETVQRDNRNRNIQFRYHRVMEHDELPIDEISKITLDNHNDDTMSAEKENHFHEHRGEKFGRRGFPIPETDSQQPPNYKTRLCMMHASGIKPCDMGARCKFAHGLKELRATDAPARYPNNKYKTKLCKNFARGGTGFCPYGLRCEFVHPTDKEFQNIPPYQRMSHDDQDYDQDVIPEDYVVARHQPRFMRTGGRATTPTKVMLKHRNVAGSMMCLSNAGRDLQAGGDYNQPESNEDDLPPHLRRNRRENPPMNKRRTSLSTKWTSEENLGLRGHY

Histone-lysine N-methyltransferase NSD2, sequence (O96028 whole entry, the tested form may be a part): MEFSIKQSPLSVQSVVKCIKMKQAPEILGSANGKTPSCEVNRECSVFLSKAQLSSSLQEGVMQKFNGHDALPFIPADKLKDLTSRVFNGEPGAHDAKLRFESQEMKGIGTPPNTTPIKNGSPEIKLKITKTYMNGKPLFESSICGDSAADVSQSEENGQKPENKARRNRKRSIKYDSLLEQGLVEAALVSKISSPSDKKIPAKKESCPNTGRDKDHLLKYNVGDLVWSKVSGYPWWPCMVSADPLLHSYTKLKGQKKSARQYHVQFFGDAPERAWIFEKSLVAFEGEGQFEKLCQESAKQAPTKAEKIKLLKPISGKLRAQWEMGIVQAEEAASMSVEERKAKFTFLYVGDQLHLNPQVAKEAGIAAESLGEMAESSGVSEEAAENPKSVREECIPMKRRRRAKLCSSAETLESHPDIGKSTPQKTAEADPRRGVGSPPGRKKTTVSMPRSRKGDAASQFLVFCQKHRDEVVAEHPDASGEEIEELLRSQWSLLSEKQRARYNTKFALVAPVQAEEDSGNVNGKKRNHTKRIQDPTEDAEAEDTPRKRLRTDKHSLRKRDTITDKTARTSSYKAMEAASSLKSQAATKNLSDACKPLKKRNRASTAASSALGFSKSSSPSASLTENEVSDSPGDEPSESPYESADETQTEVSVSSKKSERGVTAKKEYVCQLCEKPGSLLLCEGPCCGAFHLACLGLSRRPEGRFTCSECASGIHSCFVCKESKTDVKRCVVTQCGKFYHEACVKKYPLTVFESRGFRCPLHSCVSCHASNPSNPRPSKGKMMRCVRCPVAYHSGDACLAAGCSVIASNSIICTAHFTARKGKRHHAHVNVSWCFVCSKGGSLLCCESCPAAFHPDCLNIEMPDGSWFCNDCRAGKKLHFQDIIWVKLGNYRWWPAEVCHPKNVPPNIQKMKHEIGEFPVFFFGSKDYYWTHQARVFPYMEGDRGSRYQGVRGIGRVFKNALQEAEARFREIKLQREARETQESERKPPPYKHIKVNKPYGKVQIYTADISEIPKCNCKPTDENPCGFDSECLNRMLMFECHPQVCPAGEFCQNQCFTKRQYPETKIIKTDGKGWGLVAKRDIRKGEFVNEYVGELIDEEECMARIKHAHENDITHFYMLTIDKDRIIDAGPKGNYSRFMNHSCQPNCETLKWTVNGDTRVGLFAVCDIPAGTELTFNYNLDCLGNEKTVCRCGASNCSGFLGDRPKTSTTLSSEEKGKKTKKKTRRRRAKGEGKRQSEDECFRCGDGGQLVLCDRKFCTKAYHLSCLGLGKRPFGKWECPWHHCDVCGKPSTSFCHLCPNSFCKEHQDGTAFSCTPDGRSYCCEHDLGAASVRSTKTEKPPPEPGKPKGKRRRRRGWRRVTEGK
Luciferin 4-monooxygenase, sequence (P08659 whole entry): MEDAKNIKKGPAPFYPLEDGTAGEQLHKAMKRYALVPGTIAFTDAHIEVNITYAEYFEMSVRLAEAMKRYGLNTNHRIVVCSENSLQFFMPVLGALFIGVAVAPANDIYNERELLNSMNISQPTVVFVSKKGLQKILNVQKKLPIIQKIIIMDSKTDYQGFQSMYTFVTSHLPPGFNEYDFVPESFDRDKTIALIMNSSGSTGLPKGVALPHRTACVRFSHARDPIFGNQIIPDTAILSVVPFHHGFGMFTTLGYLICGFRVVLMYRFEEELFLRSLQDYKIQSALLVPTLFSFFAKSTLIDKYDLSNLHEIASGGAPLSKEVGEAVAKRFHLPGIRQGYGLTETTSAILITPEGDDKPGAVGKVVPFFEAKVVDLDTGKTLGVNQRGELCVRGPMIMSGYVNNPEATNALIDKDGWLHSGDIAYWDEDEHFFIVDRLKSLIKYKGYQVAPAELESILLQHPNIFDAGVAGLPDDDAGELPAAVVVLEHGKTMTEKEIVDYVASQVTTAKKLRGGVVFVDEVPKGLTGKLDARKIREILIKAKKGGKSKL
Tyrosyl-DNA phosphodiesterase 2, sequence (O95551 whole entry): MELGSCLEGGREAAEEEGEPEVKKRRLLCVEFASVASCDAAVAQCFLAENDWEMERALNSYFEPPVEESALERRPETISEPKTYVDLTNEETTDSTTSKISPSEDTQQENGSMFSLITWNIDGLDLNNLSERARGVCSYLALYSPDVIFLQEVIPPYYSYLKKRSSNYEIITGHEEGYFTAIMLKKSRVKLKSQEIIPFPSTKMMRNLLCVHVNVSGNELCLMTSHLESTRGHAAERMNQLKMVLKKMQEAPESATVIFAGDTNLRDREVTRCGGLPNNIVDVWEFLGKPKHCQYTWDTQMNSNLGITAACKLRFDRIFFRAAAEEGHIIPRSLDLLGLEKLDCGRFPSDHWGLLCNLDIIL

| SMILES | EC50 (Protein RecA) | AC50 [1] | IC50 [2] | EC50 [3] | AC50 [4] | AC50 [5] | AC50 [6] | EC50 [7] | AC50 [8] | AC50 [9] | AC50 [10] | EC50 [11] | EC50 [12] |
| --- | --- | --- | --- | --- | --- | --- | --- | --- | --- | --- | --- | --- | --- |
| COc1ccc(/C=C2/C(=O)N(c3ccccc3)N=C2C)cc1Br | 2.3 µM (active) | 2.77 µM (active) | 102 µM (inactive) |  |  |  |  |  |  |  |  |  |  |
| Cc1cccc(NC(=O)c2ccc3c(c2)OCCO3)c1 |  |  |  | 6.2 µM (active) | 7.92 µM (active) | > 52 µM (inactive) | > 52 µM (inactive) | 6.74 µM (active) | > 52 µM (inactive) | 9.29 µM (active) |  |  |  |
| CC1=NN(c2ccc(C(=O)O)c(N)c2)C(=O)C1 | 1.98 µM (active) | 3.01 µM (active) |  |  |  |  |  |  |  |  | > 20 µM (inactive) | 85.5 µM (active) | 38.3 µM (active) |
